Data set [1] concerns Rhizomucor. The experiment in a line: Antifungal activity against Rhizomucor sp. strain 25 zygomycota by conventional morphological method. The format is functional.
Data set [2] has as its system Rhizopus. As to the kind of experiment: Antifungal activity against Rhizopus strain 8 zygomycota by conventional morphological method. The format is functional.
For data set [3], the system named is Syncephalastrum. The experiment in a line: Antifungal activity against Snycephalastrum sp. strain 23 zygomycota by conventional morphological method. The format is functional.
For data set [4], the system named is Absidia. As to the kind of experiment: Antifungal activity against Absidia strain 17 zygomycota by conventional morphological method. The format is functional.
The test system of data set [5] is Rhizopus. As to the kind of experiment: Antifungal activity against Rhizopus strain 0 zygomycota by conventional morphological method. The format is functional.
The subject of data set [6] is Rhizopus. As to the kind of experiment: Antifungal activity against Rhizopus strain 3 zygomycota by conventional morphological method. The data set is classed as functional.
The subject of data set [7] is Mucor. The experiment in a line: Antifungal activity against Mucor strain 39 zygomycota by conventional morphological method. The format is functional.
Data set [8] has as its system Mucor. As to the kind of experiment: Antifungal activity against Mucor strain 43 zygomycota by conventional morphological method. The data set is classed as functional.
The test system of data set [9] is Cunninghamella. The experiment in a line: Antifungal activity against Cunninghamella sp. strain 12 zygomycota by conventional morphological method. The format is functional.
Data set [10] has as its system Absidia. The experiment in a line: Antifungal activity against Absidia strain 18 zygomycota by conventional morphological method. The data set is classed as functional.
The test system of data set [11] is Absidia. The experiment in a line: Antifungal activity against Absidia strain 11 zygomycota by conventional morphological method. The data set is classed as functional.
Data set [12] relates to Mucor. The experiment in a line: Antifungal activity against Mucor strain 28 zygomycota by conventional morphological method. The data set is classed as functional.
Data set [13] can be described thus: Toxicity in invasive zygomycosis diseased patient assessed as mortality. The format is organism-based. The following applies: human, in vivo; read-out: Activity.

Converted amounts (≈) assume the structure as drawn. Some results are limits rather than exact numbers.

As for `CC[C@H](C)C[C@H](C)CCCCCCCCC(=O)N[C@H]1C[C@@H](O)[C@@H](NCCN)NC(=O)[C@@H]2[C@@H](O)CCN2C(=O)[C@H]([C@H](O)CCN)NC(=O)[C@H]([C@H](O)[C@@H](O)c2ccc(O)cc2)NC(=O)[C@@H]2C[C@@H](O)CN2C(=O)[C@H]([C@@H](C)O)NC1=O` [CASPOFUNGIN], the MIC in data set [1] was 128 µg/mL (≈ 117 µM); in [2] it was above 256 µg/mL; in data set [3], above 256 µg/mL; in [4], above 256 µg/mL; in [5], above 256 µg/mL; in [6], above 256 µg/mL. The MIC in data set [7] is above 256 µg/mL; in [8], 256 µg/mL (≈ 234 µM); in data set [9], above 256 µg/mL; in data set [10] it was above 256 µg/mL; in data set [11], above 256 µg/mL; in data set [12], 256 µg/mL (≈ 234 µM).

On to `CC[C@@H]([C@H](C)O)n1ncn(-c2ccc(N3CCN(c4ccc(OC[C@@H]5CO[C@@](Cn6cncn6)(c6ccc(F)cc6F)C5)cc4)CC3)cc2)c1=O` [POSACONAZOLE], for which the MIC in data set [1] is 2 µg/mL (≈ 2.85 µM); in [2], 1 µg/mL (≈ 1.43 µM); in data set [3], 1 µg/mL (≈ 1.43 µM); in data set [4], 1 µg/mL (≈ 1.43 µM); in data set [5] it was 1 µg/mL (≈ 1.43 µM); in [6] it was 1 µg/mL (≈ 1.43 µM). Also, the MIC came to 1 µg/mL (≈ 1.43 µM) in [7]; 0.5 µg/mL (≈ 0.713 µM) in data set [8]; 1 µg/mL (≈ 1.43 µM) in data set [9]; 0.5 µg/mL (≈ 0.713 µM) in [10]; 1 µg/mL (≈ 1.43 µM) in data set [11]; 0.5 µg/mL (≈ 0.713 µM) in data set [12]. In addition, the mortality in [13] is 30%.

Source of the values: ChEMBL document CHEMBL1143413, “Synergistic effect of posaconazole and caspofungin against clinical zygomycetes” (Antimicrob Agents Chemother, 2007).
